Legend:
human hepatocytes [1] = test: Metabolite identification in human hepatocytes; type: in vitro ADME; settings: for relative proportion of compounds identified: 5-MeO-DMT 10 μM, up to 120 minutes
Procedure: All samples were stored at −80° C. (nominal) prior to analysis.
Appropriate blank and control samples were also analysed. […] (nominal).

human hepatocytes [2] = test: Metabolic stability in Hμrel human hepatocyte co-culture; type: in vitro ADME; settings: for relative LC/MS peak area: 0 h
Procedure: The incubations were performed using 1 and 10 μM initial concentrations and sampling at 0, 1, 2, 4, 8, 24, 48, and 72 hours (h) time points. The samples were analysed using UPLC/QE-orbitrap-MS.

human plasma protein = test: Binding to human plasma protein (unbound fraction); type: in vitro ADME
Procedure: Binding to human plasma protein was determined. Reported are the unbound fraction (fu) for three replicates as well as the mean unbound fraction, the standard deviation and the mean % recovery (Table 8).

[3] = Pharmacokinetics of 5-MeO-DMT and bufotenine after inhalation; type: in vivo, human

## 5-Methoxyindole acetic acid [5-MIAA]
Human hepatocytes [1]
  presence in subsequent assays: predominant metabolite
Human hepatocytes [2]
  disappearance with stromal cell controls: no disappearance
Human hepatocytes [2]; 1 μM, human hepatocytes
  in vitro intrinsic clearance: 0.15 μl/min/million cells
Human hepatocytes [2]; 72 h, hepatocytes, 1 and 10 μM
  remaining abundance: 75-82%
Human plasma protein
  plasma binding (mean fraction unbound): ~50%
Human plasma protein; from glomerular filtration rate 90-120 ml/min
  time for removal from circulation by renal clearance: 1 to 2 h

## COc1ccc2[nH]cc(CC[N+](C)(C)[O-])c2c1 [5-MeO-DMT-N-oxide]
Human hepatocytes [1]
  relative proportion of compounds identified: 1%

## CN(C)CCc1c[nH]c2ccc(O)cc12 [bufotenine, Bufotenine]
[3]; 15 minutes after administration of 5-MeO-DMT
  detection in human serum: In no case is it detected
[3]; from 15 min after 5-MeO-DMT inhalation, LLOQ
  bufotenine blood concentration: < 25 pg/mL
Human hepatocytes [1]
  relative proportion of compounds identified: 5%

## CN(C)CCc1c[nH]c2ccc(O[C@@H]3O[C@H](C(=O)O)[C@@H](O)[C@H](O)[C@H]3O)cc12 [Bufotenine glucuronide]
Human hepatocytes [1]
  detection in the hepatocyte assay: not detected

## COc1ccc2[nH]cc(CCO)c2c1 [5-methoxytryptophol, 5-Methoxyindole-3-ethanol]
Human hepatocytes [1]
  presence in subsequent assays: repeatedly failed to detect
  relative proportion of compounds identified: 25%
Human hepatocytes [2]
  disappearance with stromal cell controls: no disappearance
Human hepatocytes [2]; 1 μM, hepatocytes
  relative LC/MS peak area: 100%
Human hepatocytes [2]; 1 μM, stromal cells
  relative LC/MS peak area: 100%
Human hepatocytes [2]; 10 μM, hepatocytes
  relative LC/MS peak area: 100%
Human hepatocytes [2]; 10 μM, stromal cells
  relative LC/MS peak area: 100%
